Measurements reported in article PMC2362044, “A potent nonporphyrin class of photodynamic therapeutic agent: cellular localisation, cytotoxic potential and influence of hypoxia” (British Journal of Cancer, 2005).
Read-outs that look alike come from different tables or passages of the source.

Key:
[1] = parameters: method as in Gorman et al, 2004; details: ref Gorman et al, 2004, cited from earlier work
MRC5 cells = experiment: Flow cytometric assessment of apoptosis (Annexin-V/PI); type: cell-based, human
Procedure: (§1) Evaluation of apoptotic and necrotic cell populations was achieved using the ApoTarget Annexin-V FITC Apoptosis kit (BioSource International, Inc.). Cells (2.0 × 10^5) were seeded into 25 cm^2 flasks and treated with either ADPM01 or ADPM06 at respective EC50 or 10-fold EC50 concentration levels for 3 h, followed by irradiation with red light at 16 J cm^−2, as described above. Subsequently, cells were incubated for 4 and 16 h, with floating and adherent cells being collected at each time point by centrifugation and then stained with Annexin-V and propidium iodide (PI) as per the manufacturer's instructions. The percentage of cells at different phases of cell death, namely nonapoptotic (Annexin-V^−/PI^−), early apoptotic (Annexin-V^+/PI^−), and necrotic or late-stage apoptotic (Annexin-V^+/PI^+), was quantified using a EPICS XL-MCL flow cytometer (Coulter) and analysed using System II software, with at least 5000 cells being analysed for each run.

HeLa cells [2] = experiment: as above; type: cell-based, human
Procedure: as §1

HT-1080 cells = experiment: Colorimetric survival (MTT) assay after photo-irradiation, normoxia; type: cell-based; details: Homo sapiens, HT-1080, 3 h incubation
Procedure: (§2) All cell lines unless otherwise stated were obtained from the American Type Culture Collection. HeLa, MRC5, HT-1080, MDA-MB-231, MCF-7 and T47-D cells were cultured in minimum essential medium (MEM) supplemented with 10% (v v^−1) foetal calf serum (FCS), 1% (v v^−1) non-essential amino acids, 50 U ml^−1 penicillin, 50 μg ml^−1 streptomycin, 20 mM HEPES and 1% (v v^−1) L-glutamine (Gibco-BRL). SW480, SW620 (obtained from Professor D Croke, Royal College of Surgeons, Dublin), A2780 and A2780cp70 cells (Obtained from Professor R Brown, Cancer Research UK, Beatson Laboratories, Glasgow) were cultured in RPMI-1640 medium plus the above-mentioned supplements. All cells were maintained in 5% CO2 (v v^−1) and 21% O2 (v v^−1) at 37°C unless otherwise stated.
(§3) Cells were seeded in 96-well flat-bottomed microtitre plates (5000 cells well^−1) and incubated at 37°C in a 5% CO2 incubator for 24 h. Cells were then incubated with varying concentrations of photosensitiser (1 × 10^−9 to 1 × 10^−4 M) in the dark for 3 h at 37°C. The ADPM compound-laden medium was then removed, the cells were washed with PBS and fresh culture medium was added to each well. This was followed by light irradiation with a broad-spectrum red light source (600–750 nm) via a Waldmann PDT1200L light delivery system. For this study, fluences (light exposures) of either 8 or 16 J cm^−2, at a dose rate of 80 mW cm^−2, were used. Following irradiation, the cells were incubated for a further 48 h before being assessed for cell viability by a standard MTT assay (Sigma). The subsequent colour change produced by viable cells was quantified using a plate reader (VICTOR^2 1420 multilabel HTS counter, Wallac). […] The dark toxicity of each compound was also assessed.
(§4) Prism ([…]) was used to graph the data obtained from the MTT assays and the uptake/clearance experiments. This program allows nonlinear regression analysis and the generation of sigmoidal dose–response curves. Prism also automatically calculates EC50 values. Statistical analysis was performed using the ANOVA test (Prism). Significant differences were detected using the Bonferroni multiple comparison test. P-values <0.05 were considered statistically significant.

A2780 cells = experiment: as above; type: cell-based; details: Homo sapiens, A2780, 3 h incubation
Procedure: as §2, §3, §4

MDA-MB-231 cells = experiment: as above; type: cell-based; details: Homo sapiens, MDA-MB-231, 3 h incubation
Procedure: as §2, §3, §4

MRC-5 cells = experiment: as above; type: cell-based; details: Homo sapiens, MRC5, MRC-5, normoxia 21% oxygen, 3 h incubation
Procedure: as §2, §3, §4

T47-D cells = experiment: as above; type: cell-based; details: Homo sapiens, T47D, 3 h incubation
Procedure: as §2, §3, §4

HeLa cells [3] = experiment: as above; type: cell-based; details: Homo sapiens, normoxia 21% oxygen, 3 h incubation
Procedure: as §2, §3, §4

A2780cp70 cells = experiment: as above; type: cell-based; details: Homo sapiens, A2780/CP70, A2780cp70, 3 h incubation
Procedure: as §2, §3, §4

MCF-7 cells = experiment: as above; type: cell-based; details: Homo sapiens, MCF7, MCF-7, 3 h incubation
Procedure: as §2, §3, §4

SW620 cells = experiment: as above; type: cell-based; details: Homo sapiens, SW-620, SW620, 3 h incubation
Procedure: as §2, §3, §4

SW480 cells = experiment: as above; type: cell-based; details: Homo sapiens, SW480, 3 h incubation
Procedure: as §2, §3, §4

[4] = MRC5, 10-fold EC50 concentration, 16 h post-irradiation
[5] = MRC5, EC50 concentration, 4 h post-irradiation
[6] = 10-fold EC50 concentration, 16 h post-irradiation
[7] = EC50 concentration, 4 h post-irradiation
[8] = 8 J cm^−2, read-out: EC50 (M) (8 J cm^−2)
[9] = 16 J cm^−2, read-out: EC50 (M) (16 J cm^−2)
[10] = 0 J cm^−2, read-out: EC50 (M) (dark)

COc1ccc(C2=[N+]3C(=Nc4c(-c5ccccc5)c(Br)c(-c5ccc(OC)cc5)n4[B-]3(F)F)C(c3ccccc3)=C2Br)cc1 [ADPM06]
strong absorbance band ([1]; formulated in CrEL/PBS): 683 nm
fluorescence quantum yield (Φf) [1]: 0.1
cells in lower left quadrant (Annexin-V−/PI−, nonapoptotic) (MRC5 cells; [4]): 28.6%
cells in lower right quadrant (Annexin-V+/PI−, early apoptotic) (MRC5 cells; [4]): 45.4%
cells in upper left quadrant (PI+, Annexin-V−) (MRC5 cells; [4]): 0.7%
cells in upper right quadrant (Annexin-V+/PI+, necrotic or late-stage apoptotic) (MRC5 cells; [4]): 25.3%
cells in lower left quadrant (Annexin-V−/PI−, nonapoptotic) (MRC5 cells; [5]): 95.9%
cells in lower right quadrant (Annexin-V+/PI−, early apoptotic) (MRC5 cells; [5]): 2.84%
cells in upper left quadrant (PI+, Annexin-V−) (MRC5 cells; [5]): 0.38%
cells in upper right quadrant (Annexin-V+/PI+, necrotic or late-stage apoptotic) (MRC5 cells; [5]): 0.88%
cells in lower left quadrant (Annexin-V−/PI−, nonapoptotic) (HeLa cells [2]; [6]): 42.3%
cells in lower right quadrant (Annexin-V+/PI−, early apoptotic) (HeLa cells [2]; [6]): 34.1%
cells in upper left quadrant (PI+, Annexin-V−) (HeLa cells [2]; [6]): 0.6%
cells in upper right quadrant (Annexin-V+/PI+, necrotic or late-stage apoptotic) (HeLa cells [2]; [6]): 23.0%
cells in lower left quadrant (Annexin-V−/PI−, nonapoptotic) (HeLa cells [2]; [7]): 95.6%
cells in lower right quadrant (Annexin-V+/PI−, early apoptotic) (HeLa cells [2]; [7]): 3.88%
cells in upper left quadrant (PI+, Annexin-V−) (HeLa cells [2]; [7]): 0.20%
cells in upper right quadrant (Annexin-V+/PI+, necrotic or late-stage apoptotic) (HeLa cells [2]; [7]): 0.30%
EC50 (HT-1080 cells; [8]): 7.9e-08 M
EC50 (HT-1080 cells; [9]): 3.7e-08 M
EC50 (A2780 cells; [8]): 1e-07 M
EC50 (A2780 cells; [9]): 3.5e-08 M
EC50 (MDA-MB-231 cells; [8]): 1.4e-07 M
EC50 (MDA-MB-231 cells; [9]): 7.5e-08 M
EC50 (MRC-5 cells; [10]): > 0.0001 M
EC50 (MRC-5 cells; [8]): 3.7e-08 M
EC50 (MRC-5 cells; [9]): 1.4e-08 M
EC50 (T47-D cells; [8]): 1.6e-06 M
EC50 (T47-D cells; [9]): 6.3e-07 M
EC50 (HeLa cells [3]; [10]): > 0.0001 M
EC50 (HeLa cells [3]; [8]): 6.3e-08 M
EC50 (HeLa cells [3]; [9]): 4.1e-08 M
EC50 (A2780cp70 cells; [8]): 6.2e-08 M
EC50 (A2780cp70 cells; [9]): 2.7e-08 M
EC50 (MCF-7 cells; [8]): 1.2e-07 M
EC50 (MCF-7 cells; [9]): 7.5e-08 M
EC50 (SW620 cells; [8]): 7.5e-08 M
EC50 (SW620 cells; [9]): 6e-08 M
EC50 (SW480 cells; [8]): 5.4e-06 M
EC50 (SW480 cells; [9]): 4.2e-08 M
